Experimental data: patent US7414031B2, “5-nitro-nucleoside compounds for treating viral infections” (priority 2004, dated 2008)

How the values were obtained:
[1] = tested on: HCV replicon I389luc-ubi-neo/NS3-3′/ET in ET (Huh-lucubineo-ET) cell line; assay: Replicon Assay; type: cell-based; details: Hepatitis C virus, read-out: Replicon Assay
Protocol: A cell line, ET (Huh-lucubineo-ET) is used for screening of compounds of the present invention for HCV RNA dependent RNA polymerase. The ET cell line is stably transfected with RNA transcripts harboring a I389luc-ubi-neo/NS3-3′/ET; replicon with firefly luciferase-ubiquitin-neomycin phosphotransferase fusion protein and EMCV-IRES driven NS3-5B polyprotein containing the cell culture adaptive mutations (E1202G; T1280I; K1846T) (Krieger at al, 2001 and unpublished). The ET cells are grown in DMEM, supplemented with 10% fetal calf serum, 2 mM Glutamine, Penicillin (100 IU/mL)/Streptomycin (100 μg/mL), 1× nonessential amino acids, and 250 μg/mL G418 (“Geneticin”). They are all available through Life Technologies (Bethesda, Md.). The cells are plated at 0.5-1.0×10^4 cells/well in the 96 well plates and incubated for 24 hrs before adding nucleoside analogs. […] Luciferase activity will be measured 48-72 hours later by adding a lysis buffer and the substrate (Catalog number Glo-lysis buffer E2661 and Bright-Glo leuciferase system E2620 Promega, Madison, Wis.). […] Under the same condition, cytotoxicity of the compounds will be determined using cell proliferation reagent, WST-1 (Roche, Germany). […] IC50 and TC50 values were calculated by fitting % inhibition at each concentration to the following equation: % inhibition=100%/[(IC50/[I])^b+1] where b is Hill's coefficient.

recombinant HCV-NS5b = biological target: T1, recombinant HCV-NS5b (Hepatitis C virus genotype 1b, UniProt Q9WMX2); assay: HCV-NS5b Enzyme Assay; type: biochemical
T1 construct: (His)6 (C); made in house; host or cells: XL-1 cells (E. coli)
Text: The coding sequence of NS5b protein is cloned by PCR from pFKI389luc/NS3-3′/ET as described by Lohmann, V., et al. (1999) Science 285, 110-113 using the following primers: […] (SEQ. ID. NO. 1) […] (SEQ. ID. NO. 2)
The cloned fragment is missing the C terminus 21 amino acid residues. The cloned fragment is inserted into an IPTG-inducible expression plasmid that provides an epitope tag (His)6 at the carboxy terminus of the protein.
The recombinant enzyme is expressed in XL-1 cells and after induction of expression, the protein is purified using affinity chromatography on a nickel-NTA column. Storage condition is 10 mM Tris-HCl pH 7.5, 50 mM NaCl, 0.1 mM EDTA, 1 mM DTT, 20% glycerol at −20° C.
The polymerase activity is assayed by measuring incorporation of radiolabeled UTP into a RNA product using a biotinylated, heteropolymeric template, which includes a portion of the HCV genome. Typically, the assay mixture (50 μL) contains 10 mM Tris-HCl (pH 7.5), 5 mM MgCl2, 0.2 mM EDTA, 10 mM KCl, 1 unit/μL RNAsin, 1 mM DTT, 10 μM each of NTP, including [^3H]-UTP, and 10 ng/μL heteropolymeric template. Test compounds are initially dissolved in 100% DMSO and further diluted in aqueous buffer containing 5% DMSO. Typically, compounds are tested at concentrations between 1 nM and 100 μM. […] Incorporation of radioactivity is determined by scintillation counting.

[2] = patients treated at currently recommended doses; cited from earlier work
HCV = details: treatment of HCV with interferon; cited from earlier work

## C[C@@]1(O)[C@H](O)[C@@H](CO)O[C@H]1n1cc(C(=O)O)c2c(N)ncnc21 [Comparative Example A, 7-(2′-methyl-β-D-ribofuranosyl)-4-amino-5-carboxy-pyrrolo[2,3-d]pyrimidine, reference compound]
[1]
  IC50: > 50000 nM

## C[C@@]1(O)[C@H](O)[C@@H](CO)O[C@H]1n1cc([N+](=O)[O-])c2c(N)ncnc21 [Compound 101, 7-(2′-C-methyl-β-D-ribofuranosyl)-4-amino-5-nitro-pyrrolo[2,3-d]pyrimidine]
[1]
  IC50: 60 nM

## C[C@@]1(O)[C@H](O)[C@@H](COP(=O)(O)OP(=O)(O)OP(=O)(O)O)O[C@H]1n1cc([N+](=O)[O-])c2c(N)ncnc21 [Compound 104, 7-(2′-C-methyl-5′-triphospho-β-D-ribofuranosyl)-4-amino-5-nitro-pyrrolo[2,3-d]pyrimidine]
Recombinant HCV-NS5b
  IC50: 2600 nM

## NC(=O)c1ncn([C@@H]2O[C@H](CO)[C@@H](O)[C@H]2O)n1 [Ribavirin, 1-β-D-ribofuranosyl-1H-1,2,-4-triazole-3-carboxamide]
[2]
  patients with significant hemolysis: 10-20%

## interferon
HCV
  response rate (long term efficacy): about 25%
